Where two headings read alike, the source gives them in different places.
How the values were obtained:
HER2 = molecular target: T1, HER2 (Homo sapiens, UniProt P04626); test: Inhibitory effect (in vitro) on HER2 phosphorylation activity; format: biochemical; details: recombinant human HER2, ATP 5 μM, 25° C. 30 minutes
T1 construct: purchased Carna Biosciences, Inc
From the text: In order to determine conditions for a method of measuring the in vitro inhibitory activity of a compound against HER2 phosphorylation activity, based on the report regarding a HER2 kinase reaction using, as a substrate, a peptide having the same sequence (5-FAM-[…]-CONH2) as that of ProfilerPro Peptide 22 of PerkinElmer (Xie H et al., PLoS One. 2011; 6(7): e21487), ProfilerPro Peptide 22 was used as a substrate. A purified recombinant human HER2 protein used in the present test was purchased from Carna Biosciences, Inc. Upon the measurement of the inhibitory activity of the compound, first, the compound of the present invention was diluted stepwise with dimethyl sulfoxide (DMSO). […] To the reaction solution, EDTA was added to a final concentration of 30 mM, so as to terminate the reaction. Finally, using LabChip (registered trademark) EZ Reader II (PerkinElmer), an unphosphorylated substrate peptide (S) and a phosphorylated peptide (P) were separated and detected according to microchannel capillary electrophoresis.

[1] = Evaluation of oral absorbability; format: in vivo, BALB/cA mice; details: mouse; plasma, oral 50 mg/kg/day, BALB/cA mice
Procedure: The compound of the present invention was suspended or dissolved in 0.5% HPMC aqueous solution and 0.1 N hydrochloric acid, and the obtained suspension or solution was orally administered to BALB/cA mice (CLEA Japan, Inc.) at a dose of 50 mg/kg/day. At 0.5, 1, 2, 4 and 6 hours after completion of the oral administration, blood was collected from the facial vein over time, so as to obtain plasma. The concentration of the compound in the obtained plasma was measured by LC-MS/MS, and the oral absorbability of the present compound was evaluated.

[2] = Evaluation of brain penetration properties; format: in vivo, BALB/cA mice; details: mouse, 0.5 hours after oral 50 mg/kg/day, BALB/cA mice; for Kp at 0.5 h: read-out: Kp value (Compound concentration in brain/plasma)
[3] = brain, read-out: Compound concentration in brain
[4] = plasma, read-out: Compound concentration in plasma

T1 sequence (P04626 23-1255): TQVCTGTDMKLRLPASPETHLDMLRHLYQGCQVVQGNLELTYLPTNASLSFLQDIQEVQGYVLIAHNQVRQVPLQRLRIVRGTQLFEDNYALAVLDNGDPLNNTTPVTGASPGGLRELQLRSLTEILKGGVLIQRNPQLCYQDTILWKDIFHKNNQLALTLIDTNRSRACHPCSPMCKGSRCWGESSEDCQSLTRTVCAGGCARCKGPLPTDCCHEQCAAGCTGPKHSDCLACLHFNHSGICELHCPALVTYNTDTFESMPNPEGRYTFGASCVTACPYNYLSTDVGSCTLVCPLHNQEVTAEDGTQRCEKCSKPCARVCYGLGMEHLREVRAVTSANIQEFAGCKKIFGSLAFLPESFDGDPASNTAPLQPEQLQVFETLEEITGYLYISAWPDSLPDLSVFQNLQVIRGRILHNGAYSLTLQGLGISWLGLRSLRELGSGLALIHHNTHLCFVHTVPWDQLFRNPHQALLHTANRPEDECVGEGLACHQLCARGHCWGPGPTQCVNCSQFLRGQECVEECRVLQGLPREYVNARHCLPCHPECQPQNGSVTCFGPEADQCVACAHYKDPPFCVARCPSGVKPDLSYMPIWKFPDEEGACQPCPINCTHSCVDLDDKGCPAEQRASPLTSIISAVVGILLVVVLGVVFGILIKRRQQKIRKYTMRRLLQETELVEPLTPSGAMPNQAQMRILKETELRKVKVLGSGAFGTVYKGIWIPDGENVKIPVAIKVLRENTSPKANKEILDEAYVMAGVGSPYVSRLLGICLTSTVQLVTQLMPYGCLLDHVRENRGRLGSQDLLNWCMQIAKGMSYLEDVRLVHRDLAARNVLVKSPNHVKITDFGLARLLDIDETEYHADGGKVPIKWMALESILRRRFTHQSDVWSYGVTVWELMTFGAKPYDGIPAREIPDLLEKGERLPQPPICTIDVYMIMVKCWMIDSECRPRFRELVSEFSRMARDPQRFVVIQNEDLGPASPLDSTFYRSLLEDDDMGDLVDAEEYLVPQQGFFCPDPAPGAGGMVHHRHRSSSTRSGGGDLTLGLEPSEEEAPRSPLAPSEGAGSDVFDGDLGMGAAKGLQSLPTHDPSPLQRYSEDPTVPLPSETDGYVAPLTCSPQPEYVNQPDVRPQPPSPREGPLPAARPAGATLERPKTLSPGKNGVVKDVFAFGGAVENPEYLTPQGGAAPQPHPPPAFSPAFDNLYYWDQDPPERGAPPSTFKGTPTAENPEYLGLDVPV

IC50 (HER2) [nM] | AUC(0-t) [1] [µM·h] | concentration at 0.5 h [2, 3] [µM] | Kp at 0.5 h ([2]; brain) | concentration at 0.5 h [2, 4] [µM] | Structure (SMILES)
2.7 | 50 | 1.4 | 0.15 | 9.1 | C=CC(=O)N1C[C@H](n2c(C#CC)c(C(=O)N[C@H](C)c3cc(F)cc(F)c3)c3c(N)ncnc32)C[C@@H]1C [Example 1, 7-(R)-((3R,5S)-1-acryloyl-5-methylpyrrolidin-3-yl)-4-amino-N—((R)-1-(3,5-difluorophenyl)ethyl)-6-(prop-1-yn-1-yl)-7H-pyrrolo[2,3-d]pyrimidine-5-carboxamide]
5.8 | 24 | 1.4 | 0.13 | 11 | C=CC(=O)N1C[C@H](n2c(C#CC)c(C(=O)NC(C)(C)c3ccccc3)c3c(N)ncnc32)C[C@@H]1C [Example 3, 7-((3R,5S)-1-acryloyl-5-methylpyrrolidin-3-yl)-4-amino-N-(2-phenylpropan-2-yl)-6-(prop-1-yn-1-yl)-7H-pyrrolo[2,3-d]pyrimidine-5-carboxamide]
3.9 | 12 | 2.8 | 0.34 | 8.3 | C=CC(=O)N1C[C@H](n2c(C#CC)c(C(=O)N[C@H](CC)c3ccccc3)c3c(N)ncnc32)C[C@@H]1C [Example 4, 7-((3R,5S)-1-acryloyl-5-methylpyrrolidin-3-yl)-4-amino-N—((R)-1-phenylpropyl)-6-(prop-1-yn-1-yl)-7H-pyrrolo[2,3-d]pyrimidine-5-carboxamide]
7.7 | 20 | 2.2 | 0.15 | 15 | C=CC(=O)N1C[C@H](n2c(C#CC)c(C(=O)NC(C)(C)c3ccccc3F)c3c(N)ncnc32)C[C@@H]1C [Example 5, 7-((3R,5S)-1-acryloyl-5-methylpyrrolidin-3-yl)-4-amino-N-(2-(2-fluorophenyl)propan-2-yl)-6-(prop-1-yn-1-yl)-7H-pyrrolo[2,3-d]pyrimidine-5-carboxamide]
2.8 | 17 | 1.3 | 0.17 | 7.5 | C=CC(=O)N1C[C@H](n2c(C#CC)c(C(=O)N[C@H](C)c3cccc(Cl)c3)c3c(N)ncnc32)C[C@@H]1C [Example 6, 7-((3R,5S)-1-acryloyl-5-methylpyrrolidin-3-yl)-4-amino-N—((R)-1-(3-chlorophenyl)ethyl)-6-(prop-1-yn-1-yl)-7H-pyrrolo[2,3-d]pyrimidine-5-carboxamide]
10 | 15 | 3.3 | 0.33 | 9.9 | C=CC(=O)N1C[C@H](n2c(C#CC)c(C(=O)N[C@@H](c3ccccc3)C(F)(F)F)c3c(N)ncnc32)C[C@@H]1C [Example 8, 7-((3R,5S)-1-acryloyl-5-methylpyrrolidin-3-yl)-4-amino-6-(prop-1-yn-1-yl)-N—((S)-2,2,2-trifluoro-1-phenylethyl)-7H-pyrrolo[2,3-d]pyrimidine-5-carboxamide]
5.6 | 51 | 2.4 | 0.18 | 13 | C=CC(=O)N1C[C@H](n2c(C#CC3CC3)c(C(=O)NC(C)(C)c3ccccc3)c3c(N)ncnc32)C[C@@H]1C [Example 9, 7-((3R,5S)-1-acryloyl-5-methylpyrrolidin-3-yl)-4-amino-6-(cyclopropylethynyl)-N-(2-phenylpropan-2-yl)-7H-pyrrolo[2,3-d]pyrimidine-5-carboxamide]
2.2 | 50 | 2.4 | 0.18 | 13 | C=CC(=O)N1C[C@H](n2c(C#CC3CC3)c(C(=O)N[C@H](C)c3cccc(F)c3F)c3c(N)ncnc32)C[C@@H]1C [Example 10, 7-((3R,5S)-1-acryloyl-5-methylpyrrolidin-3-yl)-4-amino-6-(cyclopropylethynyl)-N—((R)-1-(2,3-difluorophenyl)ethyl)-7H-pyrrolo[2,3-d]pyrimidine-5-carboxamide]
5.2 | 18 | 2.8 | 0.22 | 13 | C=CC(=O)N1C[C@H](n2c(C#CC(C)(C)OC)c(C(=O)N[C@H](C)c3ccccc3)c3c(N)ncnc32)C[C@@H]1C [Example 13, 7-((3R,5S)-1-acryloyl-5-methylpyrrolidin-3-yl)-4-amino-6-(3-methoxy-3-methylbut-1-yn-1-yl)-N—((R)-1-phenylethyl)-7H-pyrrolo[2,3-d]pyrimidine-5-carboxamide]
2.2 | 27 | 2.1 | 0.21 | 9.9 | C=CC(=O)N1C[C@H](n2c(C#CCC)c(C(=O)N[C@H](C)c3ccccc3)c3c(N)ncnc32)C[C@@H]1C [Example 14, 7-((3R,5S)-1-acryloyl-5-methylpyrrolidin-3-yl)-4-amino-6-(but-1-yn-1-yl)-N—((R)-1-phenylethyl)-7H-pyrrolo[2,3-d]pyrimidine-5-carboxamide]
3.3 | 15 | 4.4 | 0.35 | 12 | C=CC(=O)N1C[C@H](n2c(C#CC)c(C(=O)N[C@H](C)c3ccccc3)c3c(N)ncnc32)C[C@@H]1CC [Example 16, 7-((3R,5S)-1-acryloyl-5-ethylpyrrolidin-3-yl)-4-amino-N—((R)-1-phenylethyl)-6-(prop-1-yn-1-yl)-7H-pyrrolo[2,3-d]pyrimidine-5-carboxamide]
2.9 | 21 | 6.5 | 0.39 | 17 | C=CC(=O)N1C[C@H](n2c(C#CC3CC3)c(C(=O)N[C@H](C)c3ccccc3)c3c(N)ncnc32)C[C@@H]1CC [Example 17, 7-((3R,5S)-1-acryloyl-5-ethylpyrrolidin-3-yl)-4-amino-6-(cyclopropylethynyl)-N—((R)-1-phenylethyl)-7H-pyrrolo[2,3-d]pyrimidine-5-carboxamide]
2.3 | 15 | 1.6 | 0.22 | 7.7 | C=CC(=O)N1C[C@H](n2c(C#CC3CC3)c(C(=O)N[C@H](C)c3ccccc3)c3c(N)ncnc32)C[C@@H]1COC [Example 18, 7-((3R,5R)-1-acryloyl-5-(methoxymethyl)pyrrolidin-3-yl)-4-amino-6-(cyclopropylethynyl)-N—((R)-1-phenylethyl)-7H-pyrrolo[2,3-d]pyrimidine-5-carboxamide]

Source: patent US11078207B2, “Substituted pyrrolo[2,3-d]pyrimidines as HER2 inhibitors” (TAIHO PHARMACEUTICAL CO., LTD., priority 2019, dated 2021)
